These results are taken from article PMC8179002, “Inhibitors of thiol-mediated uptake” (Chemical Science, 2020).

Where two headings read alike, the source gives them in different places.

Series [1] has as its system HeLa Kyoto cells. Conditions: cited from earlier work.
For series [2], the system named is cellular uptake of 1 in HeLa Kyoto cells. The series can be described thus: cells. Type of series: cell-based. The settings on record: HeLa, removal, tinc 0.5 h with 1 (10 µM); for IC50: read-out: IC50, inhibition of cellular uptake of 1. The method, then:
(§1) With COCs 1 and 2 as cell-penetrating reporters, a fully automated, fluorescent microscopy image-based high-content high-throughput (HCHT)[19] inhibitor screening assay was developed. HeLa cells in multiwell plates are incubated with a reporter at constant and inhibitors at varying concentrations and incubation times. Hindered reporter uptake then causes decrease of fluorescence inside of cells (Fig. 3a). Automated data analysis[19] was established to extract average fluorescence intensity per cell and, at the same time, cell viability from propidium iodide negative nuclei count (Fig. 3 and S3–S6 ^†). Standard assay conditions consisted of pre-incubation of HeLa cells with inhibitors for different periods of time, followed by the removal of inhibitors and the addition of reporters, thus excluding possible interactions between the two in the extracellular environment. In alternative co-incubation conditions, inhibitors were not removed before the addition of reporters to allow for eventual interactions between the two.
4. High-Content High-Throughput (HCHT) Inhibitor Screening
4.1. General Procedure for HCHT Inhibitor Screening
4.1.1. Pre-Incubation of Inhibitors
HeLa Kyoto cells were seeded at 1.2 ×10^4 cells/well in FluoroBrite DMEM + 10% FBS on μ-Plate 96-well Black ibiTreat sterile and kept at 37 °C with 5% CO2 overnight. Next day, serial dilutions of the inhibitors in PBS (10x final concentration), reporter 1 or 2 (100 μM in PBS) and a solution of Hoechst 33342 (100 μg/mL) and PI (10 μg/mL) in PBS were prepared freshly in a 96-well V-bottom plate. Then, cells were washed with PBS ([…]) and the media was exchanged to FluoroBrite DMEM (4 x 150 μL/well) using a plate washer (Biotek EL406®), keeping always a final volume of 135 μL/well. The inhibitor solutions from the V-bottom plate were added to the cells (15 μL/well, 10x final concentration in PBS) using an electronic multichannel pipettes to reach a final volume of 150 μL/well. Cells were incubated for the time of interest (for details of each inhibitors, see Section 4.3 and 4.4) at 37 °C with 5%
CO2. After this, cells were washed again using the plate washer and reporter solution 1 or 2 from the V-bottom plate was added (15 μL/well) using an electronic multichannel pipettes to reach a final volume of 150 μL/well and a final concentration of 10 μM, except for the control wells, where only PBS was added (15 μL/well). After 30 min of incubation at 37 °C with 5% CO2, the plate was washed again using the plate washer. Then, the solution of Hoechst 33342 and PI from V-bottom plate was added (15 μL/well) using an electronic multichannel pipettes to reach a final volume of 150 μL/well. After 15 min of incubation at 37 °C with 5% CO2, the plate was washed one last time and the cells were kept in clean FluoroBrite DMEM. During imaging, samples were kept at 37 °C with 5% CO2 in the microscope.
4.1.2. Co-Incubation of Inhibitors and Reporters […]
serial dilutions of the inhibitors in PBS (10x final concentration), reporter 1 or 2 (110 μM in […]
freshly in a 96-well V-bottom plate. Then, cells were washed with the plate washer. The inhibitor solutions from the V-bottom plate were added to the cells (15 μL/well, 10x final concentration in PBS) using an electronic multichannel pipettes to reach a final volume of 150 μL/well. Cells were incubated for the time of interest (for details of each inhibitors, see Section 4.3 and 4.4) at 37 °C with 5% CO2. Reporter solution 1 or 2 from V-bottom plate was then added (15 μL/well) using an electronic multichannel pipettes to reach a final volume of 165 μL/well and a final concentration of 10 μM 30 min before the next washing process, except for the control wells, where only PBS was added (15 μL/well). The plate was washed again using the plate washer. The solution of Hoechst 33342 and PI from V-bottom plate was added (15 μL/well) using an electronic multichannel pipettes to reach a final volume of 150 μL/well. After […]

The subject of series [3] is HeLa Kyoto cells. Kind of series: Relative cell viability in HCHT screening (propidium iodide negative nuclei count). Type of series: cell-based. The settings on record: HeLa, removal, tinc 0.5 h with 1 (10 µM), read-out: GI50, concentration causing 50% cell growth inhibition. The method, then:
as §1
To be able to extract the fluorescent integrated intensity information (sum of the intensities of all the pixels included in the mask) from the green channel for live cell only, the image analysis pipeline contains several steps of cell filtering and selection:
1) Firstly, PI is used to stain any remaining nuclei of dead cell. In the analysis pipeline, all the “dead” nuclei are detected based on their fluorescent intensity in the PI channel (Figure […]
Fig. S4 (A) PI positive nuclei mask (fluorescent intensity threshold of 1000). (B) Overlap image of dead nuclei mask and original all cell body mask. (C) Resulting cell mask after removing any cell marked by a dead nucleus, new mask is called “Live Cell”. Scale bar: 50 μm.
2) Elimination of non-full cells from the border of the image is performed, to avoid inaccurate fluorescent integrated intensity quantification (fluorescent integrated intensity = sum of intensity of all the pixel of the object) (Figure S5).
(1 picture or pasted object on this page, not shown here)
4.3. HCHT Inhibitor Screening with ETP as Reporter […]
Relative cell viability (RV) for each condition in the presence of inhibitors were calculated using the count value of living cells by dividing the count value of living cells with addition of reporter 1, Hoechst 33342 and PI, for each set of experiments. Duplicates were performed for each condition. The resulting dependence of the relative cell viability (RVrel) to the concentration of inhibitors (cinhibitor) was plotted and fitted with Equation (S2) to retrieve the concentration causing 50% cell growth inhibition (GI50) value and the Hill coefficient (n).
RVrel = 1 / (1 + (GI50 / cinhibitor)n) (S2)
Note: Reporter 1 were not toxic for 1 h at 10 μM.S2 Also in this study, the count value of living cells with addition of reporter 1, Hoechst 33342 and PI is always similar to that of living cells with only addition of Hoechst 33342 and PI.
Relative cell viability (RV) for each condition with inhibitors were calculated using the count value of living cells by dividing the count value of living cells with addition of reporter 2, Hoechst 33342 and PI, for each set of experiments. Duplicates were performed for each condition. The resulting dependence of the relative cell viability (RVrel) to the concentration of inhibitors (cinhibitor) was plotted and fitted with Equation (S2) to retrieve the concentration causing 50% cell growth inhibition (GI50) value and the Hill coefficient (n).
Note: Reporter 2 were not toxic for 24 h at 10 μM.S3 Also in this study, the count value of living cells with addition of reporter 2, Hoechst 33342 and PI is always similar to that of living cells with only addition of Hoechst 33342 and PI.
4.4.1. Screening with Disulfides as Inhibitors
4.4.1.1. Screening with ETP as Inhibitors
Fig. S35 Automatically analyzed HCHT data showing fluorescence intensity (filled symbols) and relative viability (empty symbols) of HeLa cells after pre-incubation with 3 for 1 h (blue […]

The subject of another series is thiol-mediated uptake. Kind of series: Inhibition of thiol-mediated uptake, reporter and protocol not stated. Conditions: preliminary results; note 34. Type of series: cell-based.

Consider `CCN1C(=O)C2SSC1C(=O)N2CC(=O)NCCNC(=S)Nc1ccc(-c2c3ccc(=O)cc-3oc3cc(O)ccc23)c(C(=O)O)c1` (stereo not drawn) [compound 1], for which, in the series on HeLa Kyoto cells [1] (1 h at 10 μM, ref S2), the Toxicity of reporter entry is given as “not toxic”.
Take `O=C(NCCNC(=S)Nc1ccc(-c2c3ccc(=O)cc-3oc3cc(O)ccc23)c(C(=O)O)c1)c1ccc2c(c1)SSSSS2` [compound 2]: the Toxicity of reporter result in the series on HeLa Kyoto cells [1] (24 h at 10 μM, ref S3) is “not toxic”.
For `[O-][S+]1CC(O)C(O)CS1` (stereo not drawn) [compound 22], the figures for the “MIC, inhibition of cellular uptake of 1” value in series [2] (tpre 1 h with inhibitor), in series [2] (tpre 2 h with inhibitor) and in series [2] (tpre 4 h with inhibitor) were 800 µM, 600 µM and 300 µM, respectively. Besides, the 50% inhibitory concentration (IC50) in series [2] (tpre 1 h with inhibitor) is more than 5 mM; in series [2] (tpre 2 h with inhibitor) it was more than 2 mM; in series [2] (tpre 4 h with inhibitor) it was more than 2 mM. In addition, the GI50 with HeLa Kyoto cells [3] (tpre 1 h with inhibitor) is 4.4 ± 0.2 mM; with HeLa Kyoto cells [3] (tpre 2 h with inhibitor) it was more than 5 mM; in the series with HeLa Kyoto cells [3] (tpre 4 h with inhibitor) it was more than 2 mM.
As for `O=c1c2ccccc2[se]n1-c1ccccc1` [ebselen], the “Inhibition of thiol-mediated uptake, in words” value in the series with thiol-mediated uptake is “inhibits”.
